Our source for the IC50 and Inhibition values is patent US20070073056A1, “4-Substituted Pyrazoline Compounds, their Preparation and Use as Medicaments” (LABORATORIOS DEL DR. ESTEVE, S.A., priority 2005, published 2007).

Test [1] concerns the target CB1-receptor (UniProt P20272). Kind of test: binding of the pyrazoline compounds to CB1-receptors (Pharmacological Methods, Part I). Further details: IC50; species or system human or rat. The method, then:
(§1) I. In-vitro Determination of Affinity to CB1/CB2-Receptors
(§2) The in-vitro determination of the affinity of the inventive 4-substituted pyrazoline compounds to CB1/CB2-Rezeptors is carried out as described in the publication of Ruth A. Ross, Heather C. Brockie et al., “Agonist-inverse agonist characterisation at CB1 and CB2 cannabinoid receptors of L-759633, L759656 and AM630”, British Journal of Pharmacology, 126, 665-672, (1999), whereby the transfected human CB1 and CB2 receptors of Receptor Biology, Inc. are used. The radioligand used for both receptors is [^3H]-CP55940. The respective parts of the description is hereby incorporated by reference and forms part of the present disclosure.
(§3) Rat Cerebellum CB1 Binding
(§4) Binding affinity to CB1 receptor was evaluated according to a modification of the method described by Govaerts et al., Eur J Pharmac Sci 23, 233-243 (2004). The respective parts of the description is hereby incorporated by reference and forms part of the present disclosure.
(§5) Briefly, cerebellum from male wistar rats (250-300 g) were carefully dissected on ice and homogenates were prepared with Potter-Helveheim in a cold 50 mM Tris-HCl solution containing 5 mM MgCl2, 1 mM EDTA and 0.25 M sucrose, pH 7.4. The suspension was centrifuged at […] for 5 minutes. The supernatants were collected and centrifuged 50,000×g for 15 minutes. The resulting pellets were then resuspended in Tris-HCl buffer without sucrose, homogenized and incubated for 15 min at 37° C. in an orbital shaker bath and centrifuged again at 50,000×g for 15 min. Pellets were weighted, resuspended in Tris-HCl buffer without sucrose, homogenized with Ultraturrax at 13,500 rpm for 3×5 seconds and alicuoted in 0.9 ml volumes in Eppendorf tubes. Alicuotes were centrifuged at 20,800×g for 5 minutes, supernatants discarded and pellets were frozen at −80° C. until use. Total protein concentration was determined using the Bio-Rad Lowry method based kit. Competitive binding experiments were performed in presence of 1 nM [^3H]-CP 55,940 in siliconized glass tubes containing 100 μg protein/tube resuspended in 1 ml final volume of 50 mM Tris-HCl, 5 mM MgCl2, 1 mM EDTA, 0.5% (w/v) bovine serum albumin, pH 7.4. Compounds were present at various concentrations and the non specific binding was determined in the presence of 10 μM HU-210. After 1 hour incubation at 30° C., the suspension was rapidly filtered through 0.5% PEI pre-treated GF/B fiber filters on a 96-well harvester and washed 3 times with 3 ml ice-cold binding buffer without bovine serum albumin. Radioactivity on filters was measured with Wallac Winspectral 1414 counter by liquid scintillation in 6 ml Ecoscint H (National Diagnostics, U.K.). Assays were made in triplicates.
(§6) Binding data were analyzed by non-linear regression with the software GraphPad Prism Version 3.03.
(§7) The binding of the pyrazoline compounds of general formula I to CB1-receptors was determined according to the method described in the section Pharmacological Methods, Part I.

Test [2] addresses CB1-receptor (UniProt P20272). The test is described as above. On the set-up: other: 10^−7 M; other: 10^−8 M; species or system human or rat. As for the experimental part: as §1, §2, §3, §4, §5, §6, §7
The mark [3] stands for this setting: radioligand [3H]-CP55940, read-out: IC50.

Structures can show the parent of a compound that is named as a salt. Where two headings read alike, the source gives them in different places.

Usually IC50 stands for the concentration needed to halve the response being measured. For the molecule `C[C@H]1C(C(=O)NN2CC3CCCC3C2)=NN(c2ccc(Cl)cc2Cl)[C@H]1c1ccc(Cl)cc1` (relative stereo) [Example 13, cis-5-(4-Chloro-phenyl)-1-(2,4-dichloro-phenyl)-4-methyl-4,5-dihydro-1H-pyrazole-3-carboxylic acid (hexahydro-cyclopenta[c]pyrrol-2-yl)-amide], the 50% inhibitory concentration (IC50) on CB1-receptor [1] (setting [3]) worked out at 0.0251 µM. Moreover, the Inhibition was determined as 70.6% on CB1-receptor [2] (10^−7 M) and 27.6 on CB1-receptor [2] (10^−8 M, in %).
On to `C[C@H]1C(C(=O)NN2CCCCCC2)=NN(c2ccc(Cl)cc2Cl)[C@H]1c1ccc(Cl)cc1.Cl` (relative stereo) [Example 96, cis-5-(4-Chlorophenyl)-1-(2,4-dichlorophenyl)-4-methyl-4,5-dihydro-1H-pyrazole-3-carboxylic acid azepan-1-ylamide hydrochloride], for which, on CB1-receptor [1] (setting [3]), the IC50 amounted to 0.0079 µM. Moreover, the Inhibition on CB1-receptor [2] (10^−7 M) is reported as 80%; at CB1-receptor [2] (10^−8 M, in %), 65.
The like results for `CC1CCCC(C)N1NC(=O)C1=NN(c2ccc(Cl)cc2Cl)[C@H](c2ccc(Cl)cc2)[C@@H]1C` (relative stereo) [Example 103, cis-5-(4-chlorophenyl)-1-(2,4-dichlorophenyl)-N-(2,6-dimethylpiperidin-1-yl)-4-methyl-4,5-dihydro-1H-pyrazole-3-carboxamide] were, in that order, 0.0606 µM, 55.3% and 19.5.
For `CC1Cc2ccccc2N1NC(=O)C1=NN(c2ccc(Cl)cc2Cl)[C@@H](c2ccc(Cl)cc2)[C@H]1C` (relative stereo) [Example 113, cis-5-(4-chlorophenyl)-1-(2,4-dichlorophenyl)-4-methyl-N-(2-methylindolin-1-yl)-4,5-dihydro-1H-pyrazole-3-carboxamide], in that order: 0.128 µM, 55.5% and 24.7.
The like results for `C[C@@H]1C(C(=O)NC2CCCCCCC2)=NN(c2ccc(Cl)cc2Cl)[C@@H]1c1ccc(Cl)cc1` (relative stereo) [Example 119, cis-5-(4-chlorophenyl)-N-cyclooctyl-1-(2,4-dichlorophenyl)-4-methyl-4,5-dihydro-1H-pyrazole-3-carboxamide] were, in that order, 0.0514 µM, 73.7% and 19.5.
With `C[C@H]1C(C(=O)NC2CCCCCC2)=NN(c2ccc(Cl)cc2Cl)[C@H]1c1ccc(Cl)cc1` (relative stereo) [Example 123, cis-5-(4-chlorophenyl)-N-cycloheptyl-1-(2,4-dichlorophenyl)-4-methyl-4,5-dihydro-1H-pyrazole-3-carboxamide], the IC50 on CB1-receptor [1] (setting [3]) was 0.0319 µM. Moreover, the Inhibition on CB1-receptor [2] (10^−7 M) stood at 90.8%; on CB1-receptor [2] (10^−8 M, in %) it was 39.9.
For the molecule `C[C@H]1C(C(=O)NN2CCCCCC2)=NN(c2ccc(Cl)cc2Cl)[C@H]1c1ccc(Br)cc1.Cl` (relative stereo) [Example 207, cis-N-(azepan-1-yl)-5-(4-bromophenyl)-1-(2,4-dichlorophenyl)-4-methyl-4,5-dihydro-1H-pyrazole-3-carboxamide hydrochloride], the IC50 at CB1-receptor [1] (setting [3]) is 0.071 µM. Besides, the Inhibition at CB1-receptor [2] (10^−7 M) was determined as 73%; on CB1-receptor [2] (10^−8 M, in %) it was 48.3.
For `C[C@H]1C(C(=O)NC2CCCCCC2)=NN(c2ccc(Cl)cc2Cl)[C@H]1c1ccc(Br)cc1` (relative stereo) [Example 211, cis-5-(4-bromophenyl)-N-cycloheptyl-1-(2,4-dichlorophenyl)-4-methyl-4,5-dihydro-1H-pyrazole-3-carboxamide], in that order: 0.03 µM, 69.8% and 37.2.
For the molecule `C[C@H]1C(C(=O)NN2CC3CCCC3C2)=NN(c2ccc(Cl)cc2Cl)[C@H]1c1ccc(Br)cc1` (relative stereo) [Example 213, cis-5-(4-bromophenyl)-1-(2,4-dichlorophenyl)-N-(hexahydrocyclopenta[c]pyrrol-2(1H)-yl)-4-methyl-4,5-dihydro-1H-pyrazole-3-carboxamide hydrochloride], at CB1-receptor [1] (setting [3]), the IC50 came out at 0.053 µM.
Turning to `C[C@H]1C(C(=O)NC2CCCCCC2)=NN(c2ccc(Cl)cc2Cl)[C@H]1c1ccc(F)cc1` (relative stereo) [Example 231, cis-N-cycloheptyl-1-(2,4-dichlorophenyl)-5-(4-fluorophenyl)-4-methyl-4,5-dihydro-1H-pyrazole-3-carboxamide], the IC50 on CB1-receptor [1] (setting [3]) turned out to be 0.112 µM. Further, the Inhibition is 50.5% on CB1-receptor [2] (10^−7 M) and 23.2 at CB1-receptor [2] (10^−8 M, in %).
As to `COc1ccc([C@@H]2[C@H](C)C(C(=O)NN3CCCCC3)=NN2c2ccc(Cl)cc2Cl)cc1.Cl` (relative stereo) [Example 265, cis-1-(2,4-dichlorophenyl)-5-(4-methoxyphenyl)-4-methyl-N-(piperidin-1-yl)-4,5-dihydro-1H-pyrazole-3-carboxamide hydrochloride], at CB1-receptor [1] (radioligand [3H]-CP55940, hydrochloride, read-out: IC50), the IC50 came out at 0.06 µM. Further, the Inhibition on CB1-receptor [2] (10^−7 M) was determined as 62%; on CB1-receptor [2] (10^−8 M, in %), 29.2.
For the molecule `COc1ccc([C@H]2[C@@H](C)C(C(=O)NN3CCCCCC3)=NN2c2ccc(Cl)cc2Cl)cc1.Cl` (relative stereo) [Example 271, cis-N-(azepan-1-yl)-1-(2,4-dichlorophenyl)-5-(4-methoxyphenyl)-4-methyl-4,5-dihydro-1H-pyrazole-3-carboxamide hydrochloride], at CB1-receptor [1] (setting [3]), the half-inhibitory concentration (IC50) was 0.061 µM. Also, the Inhibition is 73.5% on CB1-receptor [2] (10^−7 M) and 30.6 on CB1-receptor [2] (10^−8 M, in %).
Take `COc1ccc([C@H]2[C@@H](C)C(C(=O)NC3CCCCCC3)=NN2c2ccc(Cl)cc2Cl)cc1` (relative stereo) [Example 275, cis-N-cycloheptyl-1-(2,4-dichlorophenyl)-5-(4-methoxyphenyl)-4-methyl-4,5-dihydro-1H-pyrazole-3-carboxamide]: at CB1-receptor [1] (radioligand [3H]-CP55940), the IC50 is 0.066 µM. The Inhibition on CB1-receptor [2] (10^−7 M) came to 69.1%; at CB1-receptor [2] (10^−8 M, in %), 26.1.
For `C[C@@H]1C(C(=O)NN2CCCCC2)=NN(c2ccc(Cl)cc2Cl)[C@H]1c1ccc(Cl)s1` (relative stereo) [Example 426, trans-5-(5-chlorothiophen-2-yl)-1-(2,4-dichlorophenyl)-4-methyl-N-(piperidin-1-yl)-4,5-dihydro-1H-pyrazole-3-carboxamide hydrochloride], at CB1-receptor [1] (setting [3]), the IC50 is 0.28 µM.
Still for that read-out and setting: under `C[C@@H]1C(C(=O)NN2CCCCC2)=NN(c2ccc(Cl)cc2Cl)[C@@H]1c1ccc(Cl)s1` (relative stereo) [Example 427, cis-5-(5-chlorothiophen-2-yl)-1-(2,4-dichlorophenyl)-4-methyl-N-(piperidin-1-yl)-4,5-dihydro-1H-pyrazole-3-carboxamide hydrochloride] stands 0.16 µM; under `C[C@@H]1C(C(=O)NN2CCCCC2)=NN(c2ccc(Cl)cc2Cl)[C@H]1c1ccc(Cl)cc1` (relative stereo) [Example 431, trans-5-(4-chlorophenyl)-1-(2,4-dichlorophenyl)-4-methyl-N-(piperidin-1-yl)-4,5-dihydro-1H-pyrazole-3-carboxamide], 0.079 µM; under `C[C@@H]1C(C(=O)NN2CCCCC2)=NN(c2ccc(Cl)cc2Cl)[C@@H]1c1ccc(Cl)cc1` (relative stereo) [Example 434, cis-5-(4-chlorophenyl)-1-(2,4-dichlorophenyl)-4-methyl-N-(piperidin-1-yl)-4,5-dihydro-1H-pyrazole-3-carboxamide], 0.089 µM.
